Counter-ions that a name gives are not always drawn. Like-named read-outs stand apart in the source and are kept apart here.
How the values were obtained:
[1] = biological target: T1, human D3 receptor (Homo sapiens, UniProt P35462); assay: D3 binding assay (125I-iodosulpiride); details: for Selectivity KiD2/KiD3: ratio of D2 (3H-spiperone) Ki to D3 (125I-sulpiride) Ki
T1 construct: host or cells: CCL 1.3 mouse fibroblasts
Description: Cloned human D3 receptor-expressing CCL 1.3 mouse fibroblasts obtained from Res. Biochemicals Internat. One Strathmore Rd., Natick, Mass. 01760-2418 USA, were used for the binding studies.
The D3-expressing cells where grown in RPMI-1640 containing 10% fetal calf serum (GIBCO No. 041-32400 N); 100 U/ml penicillin and 0.2% streptomycin (GIBCO BRL, Gaithersburg, Md., USA). After 48h, the cells were washed with PBS and incubated with 0.05% trypsin-containing PBS for 5 min. Neutralization with medium was then carried out, and the cells were collected by centrifugation at 300×g. To lyze the cells, the pellet was briefly washed with lysis buffer (5 mM tris-HCl, pH 7.4, with 10% glycerol) and then incubated in a concentration of 10^7 cells/ml of lysis buffer at 4° C. for 30 min. The cells were centrifuged at 200×g for 10 min and the pellet was stored in liquid nitrogen.
For the D3 receptor binding assay, the membranes were suspended in incubation buffer (50 mM tris-HCl, pH 7.4, with […], 5 mM KCl, 2 mM CaCl2, 2 mM MgCl2, 10 μM quinolinol, 0.1% ascorbic acid and 0.1% BSA) in a concentration of about 10^6 cells/250 μl of assay mixture and incubated at 30° C. with 0.1 nM ^125iodosulpiride in the presence and absence of test substance. The non-specific binding was determines using 10^−6 M spiperone.
After 60 min, the free and the bound radioligand was separated by filtration through GF/B glasd fiber filters (Whatman, England) on a Skatron cell collector (Skatron, Lier, Norway), and the filters were washed with ice-cold tris-HCl buffer, pH 7.4. The radioactivity collected on the filters was quantified using a Packard 2200 CA ligand scintillation counter.
The Ki values were determined by non-linear regression analysis using the LIGAND program.

[2] = cloned human D3 receptor in CCL 1.3 mouse fibroblast membranes, 0.1 nM 125I-iodosulpiride, read-out: D3 125I-sulpiride Ki

T1 sequence (P35462 whole entry): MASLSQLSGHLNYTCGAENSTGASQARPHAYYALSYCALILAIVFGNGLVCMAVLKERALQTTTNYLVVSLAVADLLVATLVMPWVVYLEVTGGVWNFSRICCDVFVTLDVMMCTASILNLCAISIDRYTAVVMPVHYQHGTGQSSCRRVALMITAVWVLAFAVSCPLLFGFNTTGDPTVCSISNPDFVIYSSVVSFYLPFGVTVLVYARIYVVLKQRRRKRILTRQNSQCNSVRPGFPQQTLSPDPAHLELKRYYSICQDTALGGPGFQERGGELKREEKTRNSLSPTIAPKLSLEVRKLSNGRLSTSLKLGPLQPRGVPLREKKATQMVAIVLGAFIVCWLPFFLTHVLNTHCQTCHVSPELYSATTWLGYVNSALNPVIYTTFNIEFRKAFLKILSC

SMILES | Ki [1, 2] [nM] | Selectivity KiD2/KiD3 [1] | melting point [°C] | affinity for the D3 receptor (in words) ([1]; D3 binding assay) | Ki [1] [nM]
Cn1c(N)nnc1SCCCN1CCN(c2cc(C(C)(C)C)cc(C(C)(C)C)c2)CC1 [Example 15] | 8.8 | 58 |  |  | 
CC(=CCN1CCN(c2cc(C(F)(F)F)nc(C(C)(C)C)n2)CC1)CSc1nnc(N)n1C [Example 42] | 13.4 | 182 | 67 to 72 |  | 
CNc1nnc(SCCCN2CCN(c3cccc(C(F)F)c3)CC2)n1C (as salt: hydrochloride) [Example 37] |  |  | 234 to 235 |  | 
Cn1c(N)nnc1SCCCN1CCN(c2cccc(C(F)(F)F)c2)CC1 [Example 10] |  | 49 |  |  | 4.5
Cc1nnc(/C=C/CN2CCN(c3ccccc3)CC2)n1-c1ccccc1 [reference compound] | 4100 |  |  | virtually no affinity | 

Continued by falling Ki [1, 2], values first:

Ki [1, 2] [nM] | Selectivity KiD2/KiD3 [1] | melting point [°C] | affinity for the D3 receptor (in words) ([1]; D3 binding assay) | SMILES | Ki [1] [nM]
8.1 | 185 | 65 to 67 |  | Cc1cc(N2CCN(CCCSc3nnc(N)n3C)CC2)nc(-n2cccc2)n1 [Example 41] | 
1.8 | 67 |  |  | CCn1c(N)nnc1SCCCN1CCN(c2cccc(C(F)F)c2)CC1 [Example 24] | 
1.7 | 176 |  |  | CNc1nnc(SCCCN2CCN(c3cccc(C(F)F)c3)CC2)n1C [Example 37] | 

— patent US6403593B1, “Triazole compounds and the use thereof” (Abbott Laboratories, priority 1995, dated 2002)
